# Counter-ions that a name gives are not always drawn.
# Target: T1, intracellular domain of DDR1 (Homo sapiens, UniProt Q08345)
# T1 construct: the intracellular domain of DDR1 (in a final concentration of 5 ng/μL) (Carna Biosciences, Inc.); purchased Carna Biosciences, Inc
# Experiment: Evaluation of DDR1 inhibition activity with HTRF KinEASE-TK kit
# Format: biochemical
# Details: intracellular domain of DDR1 5 ng/μL, ATP 25 mol/L (so in the source), TK Substrate-biotin 1000 nmol/L, room temperature, one hour
# Experimental: The DDR1 inhibition activity of the compounds of Examples 1 to 51 was evaluated with HTRF® KinEASE-TK kit (Cisbio Bioassays).
# Each test substance was dissolved in dimethyl sulfoxide (hereinafter referred to as DMSO) and then used for the evaluation as described below. Moreover, each of test substances and reagents was diluted in the kinase buffer (Cisbio Bioassays) prepared by adding thereto MgCl2, MnCl2, DTT, and the Supplemental Enzyme buffer (Cisbio Bioassays) to concentrations of 5 mmol/L, 0.5 mmol/L, 0.25 mmol/L, and 50 nmol/L, respectively, and then used. Each test substance (in DMSO in a final concentration of 1%), the intracellular domain of DDR1 (in a final concentration of 5 ng/μL) (Carna Biosciences, Inc.), the phosphate donor ATP (in final concentration of 25 mol/L) (Sigma), and the substrate TK Substrate-biotin (in a final concentration of 1000 nmol/L) (Cisbio Bioassays) were added to a 384-well black plate (Corning) and allowed to react at room temperature for one hour. After completion of the reaction, the TK Antibody-Cryptate (Cisbio Bioassays) and the Streptavidin-XL665 (Cisbio Bioassays) were added thereto and allowed to react at room temperature for one hour. In addition, the plate was provided with a well to which a test substance was not added, and with a well to which the intracellular domain of DDR1 and a test substance were not added.
# The fluorescence intensity in each well was measured using a multi-label counter (Envision, PerkinElmer; excitation wavelength: 320 nm, measurement wavelength: 665 nm and 620 nm) to calculate a Ratio (the fluorescence intensity at 665 nm/the fluorescence intensity at 620 nm). The inhibition rate (%) of a test substance at each concentration was calculated based on the formula below. Inhibition rate (%)=([the Ratio obtained from the well containing no test substance]−[the Ratio from a well containing a test substance])/([the Ratio obtained from the well containing no test substance]−[the Ratio obtained from the well containing no intracellular domain of DDR1 and no test substance])×100
# The calculated inhibition rates were fitted to a sigmoidal dose-response curve by regression analysis using the Prism 5.04 (GraphPad Software, Inc.) to calculate the ICso0 value of the test substance.
# T1 sequence (Q08345 444-876 isoform Q08345-2 limits assumed): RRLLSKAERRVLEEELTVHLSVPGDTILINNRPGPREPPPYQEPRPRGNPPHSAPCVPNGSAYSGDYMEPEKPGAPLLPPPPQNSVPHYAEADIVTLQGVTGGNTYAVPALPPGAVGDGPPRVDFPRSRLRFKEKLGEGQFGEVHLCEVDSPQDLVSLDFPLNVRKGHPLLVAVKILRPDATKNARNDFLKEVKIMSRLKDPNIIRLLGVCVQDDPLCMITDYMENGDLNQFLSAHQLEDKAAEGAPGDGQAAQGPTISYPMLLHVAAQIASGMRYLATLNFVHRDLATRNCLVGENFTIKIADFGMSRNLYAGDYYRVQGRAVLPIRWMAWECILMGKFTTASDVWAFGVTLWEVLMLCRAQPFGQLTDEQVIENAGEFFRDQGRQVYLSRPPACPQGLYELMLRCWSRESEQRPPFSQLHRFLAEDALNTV
row,IC50 [nM],Structure (SMILES)
1,8.91,"NC(=O)c1ccc(Oc2ccccc2CNC(=O)Nc2ccc(CN3CCNCC3)c(C(F)(F)F)c2)cc1 [Compound of Example 40, 4-(2-((3-(4-((piperazin-1-ylmethyl)-5-(trifluoromethyl)phenyl)ureido)methyl)phenoxy)benzamide hydrochloride]"
2,21,COc1ccc(OC(F)(F)F)cc1NC(=O)NCc1ccccc1Oc1ccc(C(N)=O)cc1 [Compound of Example 27]
3,52.1,COc1ccc(S(F)(F)(F)(F)F)cc1NC(=O)NCc1ccccc1OCc1ccncc1 [Compound of Example 1]
4,11,COc1ccc(C(F)(F)F)cc1NC(=O)NCc1ccccc1Oc1ccc(C(N)=O)cc1 [Compound of Example 31]
5,13.5,"COc1c(CO)cc(C(F)(F)F)cc1NC(=O)NCc1ccccc1OCc1ccc(C(N)=O)cc1 [Compound of Example 20, 4-((2-((3-(3-(hydroxymethyl)-2-methoxy-5-(trifluoromethyl)phenyl)ureido)methyl)phenoxy)methyl)benzamide]"
6,37.4,"NC(=O)c1ccc(COc2ccccc2CNC(=O)Nc2cccc(C(F)(F)F)c2)cc1 [Compound of Example 19, 4-((2-((3-(3-(trifluoromethyl)phenyl)ureido)methyl)phenoxy)methyl)benzamide]"
7,194,COC(=O)c1ccc(Oc2ccccc2CNC(=O)Nc2cc(OC(F)(F)F)ccc2OC)cc1 [Compound of Example 25]
8,12.9,"NC(=O)c1ccc(Oc2ccccc2CNC(=O)Nc2cc(C(F)(F)F)ccc2OC2COC2)cc1 [Compound of Example 33, 4-(2-((3-(2-(oxetan-3-yloxy)-5-(trifluoromethyl)phenyl)ureido)methyl)phenoxy)benzamide]"
9,13.2,"NC(=O)c1ccc(Oc2ccccc2CNC(=O)Nc2ccc(CO)c(C(F)(F)F)c2)cc1 [Compound of Example 36, 4-(2-((3-(4-(hydroxymethyl)-5-(trifluoromethyl)phenyl)ureido)methyl)phenoxy)benzamide]"
10,308,"CCN(CC)CCNC(=O)c1ccc(COc2ccccc2CNC(=O)Nc2cc(OC(F)(F)F)ccc2OC)cc1 [Compound of Example 15, N-(2-(diethylamino)ethyl)-4-((2-((3-(2-methoxy-5-(trifluoromethoxy)phenyl)ureido)methyl)phenoxy)methyl)benzamide]"
11,42.2,"COc1ccc(S(F)(F)(F)(F)F)cc1NC(=O)NCc1ccccc1Oc1ccnc(-n2ccnc2)n1 [Compound of Example 24, 1-(2-((2-(1H-imidazol-1-yl)pyrimidin-4-yl)oxy)benzyl)-3-(2-methoxy-5-(pentafluorosulfanyl)phenyl)urea]"
12,51.7,COc1ccc(OC(F)(F)F)cc1NC(=O)NCc1ccccc1OCc1ccncc1 [Compound of Example 4]
13,22.5,CCOc1ccc(C(F)(F)F)cc1NC(=O)NCc1ccccc1Oc1ccc(C(N)=O)cc1 [Compound of Example 46]
14,38.3,COc1ccc(OC(F)(F)F)cc1NC(=O)NCc1ccccc1Oc1ccc(C(=O)O)cc1 [Compound of Example 26]
15,585,"COC(=O)c1ccc(COc2ccccc2CNC(=O)Nc2cc(OC(F)(F)F)ccc2OC)cc1 [Compound of Example 7, methyl 4-((2-((3-(2-methoxy-5-(trifluoromethoxy)phenyl)ureido)methyl)phenoxy)methyl)benzoate]"
16,23.3,"COc1ccc(C(F)(F)F)cc1NC(=O)NCc1ccccc1OCc1ccc(C(N)=O)cc1 [Compound of Example 18, 4-((2-((3-(2-methoxy-5-(trifluoromethyl)phenyl)ureido)methyl)phenoxy)methyl)benzamide]"
17,78.5,"CNC(=O)c1ccc(Oc2ccccc2CNC(=O)Nc2cc(C(F)(F)F)ccc2OC2COC2)cc1 [Compound of Example 43, 4-(2-((3-(2-(oxetan-3-yloxy)-5-(trifluoromethyl)phenyl)ureido)methyl)phenoxy)-N-methyl-benzamide]"
18,4.2,"NC(=O)c1ccc(Oc2ccccc2CNC(=O)Nc2cc(CN3CCNCC3)cc(C(F)(F)F)c2)cc1 [Compound of Example 39, 4-(2-((3-(3-((piperazin-1-ylmethyl)-5-(trifluoromethyl)phenyl)ureido)methyl)phenoxy)benzamide hydrochloride]"
